The compounds below were run on HBsAg (assay: HBsAg assay: inhibition of HBsAg in HepG2.2.15 cells (CLIA immunoassay of supernatant)). Conditions: read-out: sAg EC50; HepG2.2.15 cells; supernatant collected at day 6 after exposure; HBsAg chemiluminescence immunoassay.
Format: cell-based, hepatitis B virus (HBV)
Description: Inhibition of HBsAg was determined in HepG2.2.15 cells. Cells were maintained in culture medium containing 10% fetal calf serum, […], Glutamine, penicillin/streptomycin. Cells were seeded in 96-well collagen-coated plate at a density of 30,000 cells/well. Serially diluted compounds were added to cells next day at the final DMSO concentration of 0.5%. Cells were incubated with compounds for 2-3 days, after which medium was removed. Fresh medium containing compounds was added to cells for additional 3-4 days. At day 6 after exposure of compounds, supernatant was collected, the HBsAg immunoassay (microplate-based chemiluminescence immunoassay kits, CLIA, Autobio Diagnosics Co., Zhengzhou, China, Catalog #CL0310-2) was used to determine the level of HBsAg according to manufactory instruction. Dose-response curves were generated and the EC50 value (effective concentrations that achieved 50% inhibitory effect) were determined using XLfit software. In addition, cells can be seeded at a density of 5,000 cells/well for determination of cell viability in the presence and absence of compounds by using CellTiter-Glo reagent (Promega). Tables 1-3 show EC50 values obtained by the HBsAg assay for selected compounds.

SMILES | EC50
COCCCOc1cc2c(cc1OC)-c1[nH]c(=O)c(C(=O)O)cc1C(C(C)C)C2 (single isomer, unassigned) [Example 2, 5-Isopropyl-9-methoxy-8-(3-methoxypropoxy)-2-oxo-1,2,5,6-tetrahydrobenzo[h]quinoline-3-carboxylic acid] | 0.011 µM
COCCCOc1cc2c(cc1OC)-c1[nH]c(=O)c(C(=O)O)cc1C(C(C)C)C2 (single isomer, unassigned) [Example 3, 5-Isopropyl-9-methoxy-8-(3-methoxypropoxy)-2-oxo-1,2,5,6-tetrahydrobenzo[h]quinoline-3-carboxylic acid] | 2 µM
COCCCOc1cc2c(cc1OC)-c1[nH]c(=O)c(C(=O)O)cc1C(C)(C(C)C)C2 (single isomer, unassigned) [Example 7, 5-Isopropyl-9-methoxy-8-(3-methoxypropoxy)-5-methyl-2-oxo-1,6-dihydrobenzo[h]quinoline-3-carboxylic acid] | 0.022 µM
COCCCOc1cc2c(cc1OC)-c1[nH]c(=O)c(C(=O)O)cc1C(C)(C(C)C)C2 (single isomer, unassigned) [Example 8, 5-Isopropyl-9-methoxy-8-(3-methoxypropoxy)-5-methyl-2-oxo-1,6-dihydrobenzo[h]quinoline-3-carboxylic acid] | 2.5 µM
COCCCOc1cc2c(cc1Cl)-c1[nH]c(=O)c(C(=O)O)cc1C(C)(C(C)C)C2 (single isomer, unassigned) [Example 10, 9-Chloro-5-isopropyl-8-(3-methoxypropoxy)-5-methyl-2-oxo-1,6-dihydrobenzo[h]quinoline-3-carboxylic acid] | 0.025 µM
COCCCOc1cc2c(cc1Cl)-c1[nH]c(=O)c(C(=O)O)cc1C(C)(C(C)C)C2 (single isomer, unassigned) [Example 11, 9-Chloro-5-isopropyl-8-(3-methoxypropoxy)-5-methyl-2-oxo-1,6-dihydrobenzo[h]quinoline-3-carboxylic acid] | 0.25 µM
COCCCOc1cc2c(cc1Cl)-c1[nH]c(=O)c(C(=O)O)c(O)c1C(C)(C(C)C)C2 (single isomer, unassigned) [Example 15, 9-Chloro-4-hydroxy-5-isopropyl-8-(3-methoxypropoxy)-5-methyl-2-oxo-1,2,5,6-tetrahydrobenzo[h]quinoline-3-carboxylic acid] | 0.018 µM
COCCCOc1cc2c(cc1Cl)-c1[nH]c(=O)c(C(=O)O)c(O)c1C(C)(C(C)C)C2 (single isomer, unassigned) [Example 16, 9-Chloro-4-hydroxy-5-isopropyl-8-(3-methoxypropoxy)-5-methyl-2-oxo-1,2,5,6-tetrahydrobenzo[h]quinoline-3-carboxylic acid] | 2 µM
COCCCOc1cc2c(nc1Cl)-c1[nH]c(=O)c(C(=O)O)c(O)c1C(C(C)C)C2 (single isomer, unassigned) [Example 27, 9-Chloro-4-hydroxy-5-isopropyl-8-(3-methoxypropoxy)-2-oxo-1,2,5,6-tetrahydro-1,10-phenanthroline-3-carboxylic acid] | 0.002 µM
COCCCOc1cc2c(nc1Cl)-c1[nH]c(=O)c(C(=O)O)c(O)c1C(C(C)C)C2 (single isomer, unassigned) [Example 28, 9-Chloro-4-hydroxy-5-isopropyl-8-(3-methoxypropoxy)-2-oxo-1,2,5,6-tetrahydro-1,10-phenanthroline-3-carboxylic acid] | 0.043 µM
COCCCOc1cc2c(cc1OC)-c1[nH]c(=O)c(C(=O)O)c(O)c1C(C)(C(C)C)C2 (single isomer, unassigned) [Example 31, 4-Hydroxy-5-isopropyl-9-methoxy-8-(3-methoxypropoxy)-5-methyl-2-oxo-1,2,5,6-tetrahydrobenzo[h]quinoline-3-carboxylic acid] | 0.027 µM
COCCCOc1cc2c(cc1OC)-c1[nH]c(=O)c(C(=O)O)c(O)c1C(C)(C(C)C)C2 (single isomer, unassigned) [Example 32, 4-Hydroxy-5-isopropyl-9-methoxy-8-(3-methoxypropoxy)-5-methyl-2-oxo-1,2,5,6-tetrahydrobenzo[h]quinoline-3-carboxylic acid] | 10 µM
COCCCOc1cc2c(nc1OC)-c1[nH]c(=O)c(C(=O)O)c(O)c1C(C(C)C)C2 (single isomer, unassigned) [Example 34, 4-Hydroxy-5-isopropyl-9-methoxy-8-(3-methoxypropoxy)-2-oxo-1,2,5,6-tetrahydro-1,10-phenanthroline-3-carboxylic acid] | 0.003 µM
COCCCOc1cc2c(nc1OC)-c1[nH]c(=O)c(C(=O)O)c(O)c1C(C(C)C)C2 (single isomer, unassigned) [Example 35, 4-Hydroxy-5-isopropyl-9-methoxy-8-(3-methoxypropoxy)-2-oxo-1,2,5,6-tetrahydro-1,10-phenanthroline-3-carboxylic acid] | 0.15 µM
COCCCOc1cc2c(nc1OC)-c1[nH]c(=O)c(C(=O)O)c(O)c1C(C(C)(C)C)C2 (single isomer, unassigned) [Example 37, 5-(tert-Butyl)-4-hydroxy-9-methoxy-8-(3-methoxypropoxy)-2-oxo-1,2,5,6-tetrahydro-1,10-phenanthroline-3-carboxylic acid] | 0.001 µM
COCCCOc1cc2c(nc1OC)-c1[nH]c(=O)c(C(=O)O)c(O)c1C(C(C)(C)C)C2 (single isomer, unassigned) [Example 38, 5-(tert-Butyl)-4-hydroxy-9-methoxy-8-(3-methoxypropoxy)-2-oxo-1,2,5,6-tetrahydro-1,10-phenanthroline-3-carboxylic acid] | 0.035 µM
CCOc1nc2c(cc1OCCCOC)CC(C(C)C)c1c-2[nH]c(=O)c(C(=O)O)c1O (single isomer, unassigned) [Example 40, 9-Ethoxy-4-hydroxy-5-isopropyl-8-(3-methoxypropoxy)-2-oxo-1,2,5,6-tetrahydro-1,10-phenanthroline-3-carboxylic acid] | 0.087 µM
CCOc1nc2c(cc1OCCCOC)CC(C(C)C)c1c-2[nH]c(=O)c(C(=O)O)c1O (single isomer, unassigned) [Example 41, 9-Ethoxy-4-hydroxy-5-isopropyl-8-(3-methoxypropoxy)-2-oxo-1,2,5,6-tetrahydro-1,10-phenanthroline-3-carboxylic acid] | 0.001 µM
COCCCOc1cc2c(nc1OC)-c1[nH]c(=O)c(C(=O)O)cc1C(C(C)C)C2 (single isomer, unassigned) [Example 44, 5-Isopropyl-9-methoxy-8-(3-methoxypropoxy)-2-oxo-1,2,5,6-tetrahydro-1,10-phenanthroline-3-carboxylic acid] | 0.002 µM
COCCCOc1cc2c(nc1OC)-c1[nH]c(=O)c(C(=O)O)cc1C(C(C)C)C2 (single isomer, unassigned) [Example 45, 5-Isopropyl-9-methoxy-8-(3-methoxypropoxy)-2-oxo-1,2,5,6-tetrahydro-1,10-phenanthroline-3-carboxylic acid] | 0.016 µM
COCCCOc1cc2c(nc1OC)-c1[nH]c(=O)c(C(=O)O)cc1C(C(C)(C)C)C2 (single isomer, unassigned) [Example 47, 5-(tert-Butyl)-9-methoxy-8-(3-methoxypropoxy)-2-oxo-1,2,5,6-tetrahydro-1,10-phenanthroline-3-carboxylic acid] | 0.001 µM
COCCCOc1cc2c(nc1OC)-c1[nH]c(=O)c(C(=O)O)cc1C(C(C)(C)C)C2 (single isomer, unassigned) [Example 48, 5-(tert-Butyl)-9-methoxy-8-(3-methoxypropoxy)-2-oxo-1,2,5,6-tetrahydro-1,10-phenanthroline-3-carboxylic acid] | 0.042 µM
COCCCOc1cc2c(nc1OC)-c1[nH]c(=O)c(C(N)=O)c(O)c1C(C(C)(C)C)C2 (single isomer, unassigned) [Example 60, 5-(tert-Butyl)-4-hydroxy-9-methoxy-8-(3-methoxypropoxy)-2-oxo-1,2,5,6-tetrahydro-1,10-phenanthroline-3-carboxamide] | 0.002 µM
COCCCOc1cc2c(nc1OC)-c1[nH]c(=O)c(C(N)=O)c(O)c1C(C(C)(C)C)C2 (single isomer, unassigned) [Example 61, 5-(tert-Butyl)-4-hydroxy-9-methoxy-8-(3-methoxypropoxy)-2-oxo-1,2,5,6-tetrahydro-1,10-phenanthroline-3-carboxamide] | 0.3 µM
COCCCOc1cc2c(nc1Cl)-c1[nH]c(=O)c(C(=O)O)c(O)c1C(C(C)C)CO2 (single isomer, unassigned) [Example 75, 2-Chloro-8-hydroxy-7-isopropyl-3-(3-methoxypropoxy)-10-oxo-6,7,10,11-tetrahydrooxepino[3,2-b:4,5-b′]dipyridine-9-carboxylic acid] | 0.022 µM
COCCCOc1cc2c(nc1Cl)-c1[nH]c(=O)c(C(=O)O)c(O)c1C(C(C)C)CO2 (single isomer, unassigned) [Example 76, 2-Chloro-8-hydroxy-7-isopropyl-3-(3-methoxypropoxy)-10-oxo-6,7,10,11-tetrahydrooxepino[3,2-b:4,5-b′]dipyridine-9-carboxylic acid] | 0.56 µM
COCCCOc1cc2c(nc1Cl)-c1[nH]c(=O)c(C(=O)O)c(O)c1C(C(C)(C)C)CO2 (single isomer, unassigned) [Example 77, 7-(tert-Butyl)-2-chloro-8-hydroxy-3-(3-methoxypropoxy)-10-oxo-6,7,10,11-tetrahydrooxepino[3,2-b:4,5-b′]dipyridine-9-carboxylic acid] | 0.006 µM

— patent US11702427B2 (priority 2018, dated 2023)
